Read-outs that look alike come from different tables or passages of the source.
Legend:
[1] = Anesthetized dog intravenous cardiovascular study; assay type: in vivo
Protocol: Whole blood samples were collected via a cannulated femoral vein at 0, 10, 20, and 29 minutes (timed from the start of each dose administration).
A separate group of 4 dogs was infused with vehicle only (30-60 mL over 90 minutes) for comparison. […] Whole blood samples were collected for determination of peak plasma concentrations (see Section 5.3.3) following infusion of each dose.

[2] = Rabbit developmental toxicity study with toxicokinetics; conditions: female, New Zealand white, in vivo; for AUC(0-t) / Cmax / Tmax: pregnant rabbits; for AUC(0-t): GD 20, read-out: AUC0-24; for Cmax / Tmax: GD 20
Protocol: For the toxicology assessment, 27-33 per rabbits per group were dosed.
On GD 29, a laparohysterectomy was performed on each surviving female.

[3] = Dog oral cardiovascular (radiotelemetry) study; assay type: in vivo
Protocol: There were four male and four female dogs per group. Surgical implantation of radiotelemetry devices occurred under anesthesia approximately 1 week prior to study initiation. The test article was administered according to a Latin square design such that each radiotelemetry-implanted dog received each treatment once, with a 7-day washout period between doses. Clinical examinations and detailed physical examinations were performed, and individual body weights were recorded on dosing days.

Male rat fertility study = experiment: Male rat fertility study
Protocol: Physical signs, body weight, and food consumption were recorded periodically. Males were housed for up to 10 nights 1:1 with untreated females following approximately 10 weeks of treatment. Mating was confirmed by daily examination of females for the presence of a vaginal copulatory plug or sperm in a vaginal lavage. The day of observing a seminal plug and/or sperm was considered GD 0. Females were euthanized on GD 15, 16, or 17 and the uterus of each female rat was examined to determine pregnancy status. Corpora lutea per female were counted. Uterine implantations were counted, and each was classified as a live fetus, dead fetus, or a resorption. At termination, the left cauda epididymis from males were weighed, and frozen. Subsequently, these tissues were prepared and analyzed for sperm number. At necropsy, a sperm suspension from the mid-region of the left vas deferens of each male was prepared and evaluated for percent motile sperm (from ≧150 cells per male).

[4] = Phase 2 efficacy study in patients with Major Depressive Disorder; assay type: in vivo, human
Description: Subjects were identified who were between the ages of 18-65 (inclusive), and met criteria for Major Depressive Disorder in accordance with the Diagnostic and Statistical manual of Mental Disorders-IV-TR and confirmed by the MINI International Neuropsychiatric Interview.
Subjects were required to refrain from taking antidepressants, anticonvulsants including gabapentin and pregabalin, neuroleptics, MAO inhibitors, barbiturates, benzodiazepines, stimulants, antipsychotics, lithium, anxiolytics and beta blockers starting two weeks prior to the study and continuing until after the follow-up visit.
Samples were drawn to assess total bilirubin, alkaline phosphatase, ALT (SGPT), AST (SGOT), blood urea nitrogen (BUN), creatinine, glucose, uric acid, calcium, phosphorus, total protein, albumin, total cholesterol, LDL, HDL, triglycerides, sodium, potassium, bicarbonate, chloride, GGT and creatine kinase, Hepatitis B, C and HIV serologies, TSH, drug screen and serum pregnancy test for females.
Efficacy was determined by measuring the change from baseline in the Montgomery-Asberg Depression Rating Scale (MADRS), the HAMD-17, the Clinical Global Impression Global Improvement Scale (CGI-I), the Clinical Global Impression-Severity scale (CGI-S) and the Derogatis Interview for Sexual Functioning Self-Report (DISF-SR). […] Comparisons between treatment groups based on MADRS (the primary efficacy parameter), HAMD-17, Anhedonia, DISF-SR, CGI-I and CGI-S scores were analyzed using a mixed-repeated measures (MMRM) analysis model including factors for Subject, Visit, Treatment Arm and Baseline value as a covariate. Adjusted least-squares means from these models are presented. Comparisons between groups were made at each post-baseline visit using model-based contrasts and adjusted degrees of freedom. For these analyses no explicit data imputations were made prior to the analysis. Response and remission categorical data were analyzed using chi-square tests. Inferential analyses of safety data were conducted with ANOVA models or chi-square tests. Two-tail alpha was set to 0.05. All analyses were conducted using SAS version 9.2.

[5] = 100 mg, Visit 8, LOCF, Completers, 50% reduction or more of baseline total score
[6] = Visit 8 (Week 6), MMRM, MITT, n = 30

Compound: Clc1ccc([C@]23CNC[C@H]2C3)cc1Cl [amitifadine, (+)-1-(3,4-dichlorophenyl)-3-azabicyclo[3.1.0]hexane]
- hemolysis in derived plasma fractions ([1]; IV infusion 2-29 mg/kg cumulative): Dose-related hemolysis was apparent
- change in BF ([1]; top dose): −57%
- change in HR ([1]; top dose): +10%
- change in PR interval vs baseline ([1]; top dose): −9%
- change in QRS interval vs baseline ([1]; top dose): +2%
- change in QTC interval vs baseline ([1]; top dose): +2%
- change in femoral vascular resistance ([1]; top dose): +354%
- AUC(0-t) ([2]; oral, 20 mg/kg/day): 19200 ng·h/mL
- NOAEL ([2]; po, oral gavage GD 7-20, read-out: NOAEL for developmental toxicity): 20 mg/kg/day
- NOAEL ([2]; po, oral gavage GD 7-20, read-out: NOAEL for maternal toxicity): 10 mg/kg/day
- Cmax ([2]; po, 3 mg/kg/day): 309 ng/mL
- Tmax ([2]; po, 3 mg/kg/day): 1 h
- AUC(0-t) ([2]; po, 3 mg/kg/day): 1320 ng·h/mL
- Cmax ([2]; po, 10 mg/kg/day): 1090 ng/mL
- Tmax ([2]; po, 10 mg/kg/day): 1 h
- AUC(0-t) ([2]; po, 10 mg/kg/day): 5860 ng·h/mL
- Cmax ([2]; po, 20 mg/kg/day): 3200 ng/mL
- Tmax ([2]; po, 20 mg/kg/day): 1 h
- change in QTcV interval ([3]; 10 mg/kg oral): < 2%
- NOEL ([3]; single oral capsule): 10 mg/kg
- decrease in sperm count/g cauda epididymis (Male rat fertility study; 13 mg/kg/day): −18%
- decreased mean body weight gain (Male rat fertility study; 13 mg/kg/day): 7%
- decreases in fecundity and fertility indices (Male rat fertility study; 13 mg/kg/day): −9%
- decrease in percent motile sperm (Male rat fertility study; 39 mg/kg/day): −33%
- decreased mean body weight gain (Male rat fertility study; 39 mg/kg/day): 9%
- decreased sperm count/g cauda epididymis (Male rat fertility study; 39 mg/kg/day): −44%
- decreases in fecundity and fertility indices (Male rat fertility study; 39 mg/kg/day): −9%
- decreased mean food consumption (Male rat fertility study; 39 mg/kg/day, first week): −60%
- mean body weight loss (Male rat fertility study; 39 mg/kg/day, initial week): -24 g
- NOEL general and reproductive toxicity (Male rat fertility study; male, Crl:CD(SD) IGS BR, rat, in vivo, 14 weeks): 4 mg/kg/day
- DISF-SR scores vs placebo ([4]; 100 mg, low and high baseline groups): no differences between (+)-1-(3,4-dichlorophenyl)-3-azabicyclo[3.1.0]hexane 100 mg and placebo
- Response rate, HAMD-17 (%) [4, 5]: 55.00%
- Response rate, MADRS (%) [4, 5]: 40.00%
- Remission rate, HAMD-17 (%) ([4]; 100 mg, Visit 8, LOCF, Completers, HAMD-17 ≦ 7): 20.00%
- Remission rate, MADRS (%) ([4]; 100 mg, Visit 8, LOCF, Completers, MADRS ≦ 12): 30.00%
- Anhedonia factor (LS Mean - SE) [4, 6]: 7.92 (0.50)
- CGI-I (LS Mean - SE) [4, 6]: 2.13 (0.20)
- CGI-S (LS Mean - SE) [4, 6]: 3.31 (0.15)
- HAMD-17 (LS Mean - SE) [4, 6]: 14.90 (1.40)
- MADRS (LS Mean - SE) [4, 6]: 18.16 (1.21)
- MADRS, Difference (95% CI) placebo vs drug ([4]; Visit 8, MMRM, MITT, P = 0.028): 3.83 (0.41, 7.26)
- CGI-I, Difference (95% CI) placebo vs drug ([4]; Visit 8, MMRM, MITT, P = 0.030): 0.62 (0.06, 1.18)
- Anhedonia factor, Difference (95% CI) placebo vs drug ([4]; Visit 8, MMRM, MITT, P = 0.049): 1.41 (0.01, 2.82)
- HAMD-17, Difference (95% CI) placebo vs drug ([4]; Visit 8, MMRM, MITT, P = 0.125): 3.12 (−0.87, 7.12)
- CGI-S, Difference (95% CI) placebo vs drug ([4]; Visit 8, MMRM, MITT, P = 0.306): 0.22 (−0.21, 0.66)
- Diastolic BP - Standing, Mean Change from baseline ([4]; Visit 8, Safety Population, n = 33, P value vs. placebo 0.017): −3.00 mm Hg
- Supine Pulse, Mean Change from baseline ([4]; Visit 8, Safety Population, n = 33, P value vs. placebo 0.145): 1.55 beats per minute
- LDL Cholesterol Fasting, Mean Change from baseline ([4]; Visit 8, Safety Population, n = 33, P value vs. placebo 0.374): -4.29 mg/dL
- Total Cholesterol Fasting, Mean Change from baseline ([4]; Visit 8, Safety Population, n = 33, P value vs. placebo 0.412): -5.86 mg/dL
- Systolic BP - Standing, Mean Change from baseline ([4]; Visit 8, Safety Population, n = 33, P value vs. placebo 0.509): 0.069 mm Hg
- Triglycerides Fasting, Mean Change from baseline ([4]; Visit 8, Safety Population, n = 33, P value vs. placebo […]): -12.00 mg/dL
- Systolic BP - Supine, Mean Change from baseline ([4]; Visit 8, Safety Population, n = 33, P value vs. placebo 0.904): 2.58 mm Hg
- Diastolic BP - Supine, Mean Change from baseline ([4]; Visit 8, Safety Population, n = 33, P value vs. placebo 0.961): −0.38 mm Hg
- Weight, Mean Change from baseline ([4]; Visit 8, Safety Population, n = 33, P value vs. placebo 0.965): 0.078 kg
- overall statistical effect size (Cohen's d), MADRS ([4]; Week 6): −0.63
- MADRS total score, estimated LS mean change from baseline (MMRM) ([4]; Week 6, placebo […], p=0.028): 18.16
- patients who reported an adverse treatment event ([4]; human, in vivo): 30.30%
- Treatment-Emergent Adverse Event: Abdominal Pain (NOS), % of Patients ([4]; n = 33): 6.06%
- Treatment-Emergent Adverse Event: Abdominal Pain (NOS), number of patients ([4]; n = 33): 2
- Treatment-Emergent Adverse Event: Anxiety, % of Patients ([4]; n = 33): 6.06%
- Treatment-Emergent Adverse Event: Anxiety, number of patients ([4]; n = 33): 2
- Treatment-Emergent Adverse Event: Diarrhea NOS, % of Patients ([4]; n = 33): 6.06%
- Treatment-Emergent Adverse Event: Diarrhea NOS, number of patients ([4]; n = 33): 2
- Treatment-Emergent Adverse Event: Emotional Disturbance NOS, % of Patients ([4]; n = 33): 6.06%
- Treatment-Emergent Adverse Event: Emotional Disturbance NOS, number of patients ([4]; n = 33): 2
- Treatment-Emergent Adverse Event: Headache NOS, % of Patients ([4]; n = 33): 9.09%
- Treatment-Emergent Adverse Event: Headache NOS, number of patients ([4]; n = 33): 3
- Treatment-Emergent Adverse Event: Irritability, % of Patients ([4]; n = 33): 6.06%
- Treatment-Emergent Adverse Event: Irritability, number of patients ([4]; n = 33): 2
- Treatment-Emergent Adverse Event: Nausea, % of Patients ([4]; n = 33): 6.06%
- Treatment-Emergent Adverse Event: Nausea, number of patients ([4]; n = 33): 2
- Treatment-Emergent Adverse Event: Rash NOS, % of Patients ([4]; n = 33): 6.06%
- Treatment-Emergent Adverse Event: Rash NOS, number of patients ([4]; n = 33): 2
- Treatment-Emergent Adverse Event: Upper Respiratory Tract Infection NOS, % of Patients ([4]; n = 33): 6.06%
- Treatment-Emergent Adverse Event: Upper Respiratory Tract Infection NOS, number of patients ([4]; n = 33): 2
